{"source": "patent US9440957B2", "about": "“Compounds and compositions for modulating EGFR Activity” (Novartis AG, priority 2012, dated 2016)", "type_in_all_cases": "cell-based", "key": {"H3255 (EGFR L858R)": {"molecular_target": "H3255 (EGFR L858R) (Homo sapiens, UniProt P00533, L858R)", "sequence (P00533 25-1210 L858R)": "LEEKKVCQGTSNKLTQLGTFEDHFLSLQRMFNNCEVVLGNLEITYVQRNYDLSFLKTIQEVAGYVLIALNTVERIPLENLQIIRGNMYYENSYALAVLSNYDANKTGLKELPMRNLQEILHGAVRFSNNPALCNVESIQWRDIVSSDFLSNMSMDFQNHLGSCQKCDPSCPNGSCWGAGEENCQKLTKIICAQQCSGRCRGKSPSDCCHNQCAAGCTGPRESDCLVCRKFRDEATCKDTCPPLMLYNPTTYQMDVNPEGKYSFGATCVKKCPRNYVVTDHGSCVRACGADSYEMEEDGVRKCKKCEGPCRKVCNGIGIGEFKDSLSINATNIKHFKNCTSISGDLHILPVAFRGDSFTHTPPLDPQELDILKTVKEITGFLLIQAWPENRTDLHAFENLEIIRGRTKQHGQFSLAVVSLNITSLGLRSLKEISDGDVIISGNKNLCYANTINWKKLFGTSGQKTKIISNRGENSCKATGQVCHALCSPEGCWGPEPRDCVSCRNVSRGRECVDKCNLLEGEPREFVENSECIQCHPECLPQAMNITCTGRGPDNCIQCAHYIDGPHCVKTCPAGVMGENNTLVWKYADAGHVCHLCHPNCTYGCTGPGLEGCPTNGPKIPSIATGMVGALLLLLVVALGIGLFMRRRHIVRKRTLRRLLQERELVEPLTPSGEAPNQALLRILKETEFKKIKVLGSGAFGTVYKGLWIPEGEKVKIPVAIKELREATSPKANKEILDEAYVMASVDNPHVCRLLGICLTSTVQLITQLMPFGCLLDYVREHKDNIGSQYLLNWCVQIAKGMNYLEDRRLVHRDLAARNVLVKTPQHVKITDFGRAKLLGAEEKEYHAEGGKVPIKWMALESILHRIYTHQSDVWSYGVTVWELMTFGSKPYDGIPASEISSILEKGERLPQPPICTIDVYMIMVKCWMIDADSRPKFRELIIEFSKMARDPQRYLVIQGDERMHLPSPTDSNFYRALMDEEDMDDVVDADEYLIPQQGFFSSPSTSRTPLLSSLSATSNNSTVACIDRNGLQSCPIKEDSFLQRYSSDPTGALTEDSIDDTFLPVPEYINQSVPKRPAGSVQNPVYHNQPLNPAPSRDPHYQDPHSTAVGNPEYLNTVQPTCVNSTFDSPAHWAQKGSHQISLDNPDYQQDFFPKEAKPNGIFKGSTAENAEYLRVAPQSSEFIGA", "test": "EGFR target modulation in H3255 cell line (phospho-EGFR Y1173 ELISA)", "method_in_brief": "(§1)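 3 h compound exposure of cells in 10% FBS/RPMI, 37 °C; lysis on ice 20 min; lysate captured overnight at 4 °C on anti-EGFR-coated plates; anti-rabbit-HRP, chemiluminescence.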"}, "[1]": {"molecular_target": "human EGFR L858R (NIH/3T3 cells) (Homo sapiens, UniProt P00533, L858R)", "sequence (P00533 25-1210 L858R)": "as above", "test": "EGFR target modulation in engineered NIH/3T3 cell lines (phospho-EGFR Y1068 AlphaLISA), EGFR L858R", "details": "engineered NIH/3T3 cells, read-out: NIH3T3 IC50 (μM) EGFR (L858R)", "method_in_brief": "(§2)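 Read-out is phospho-Y1068 AlphaLISA on cell lysates, with anti-total EGFR at 1 nM final equilibrated 1 h at room temperature. Cells were dosed 3 h with a 12-point 1:3 series starting from a 10 μM stock. Only the WT line received 50 ng/ml EGF for 5 min.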"}, "HaCaT (EGFR WT)": {"molecular_target": "HaCaT (EGFR WT) (Homo sapiens, UniProt P00533)", "sequence (P00533 25-1210)": "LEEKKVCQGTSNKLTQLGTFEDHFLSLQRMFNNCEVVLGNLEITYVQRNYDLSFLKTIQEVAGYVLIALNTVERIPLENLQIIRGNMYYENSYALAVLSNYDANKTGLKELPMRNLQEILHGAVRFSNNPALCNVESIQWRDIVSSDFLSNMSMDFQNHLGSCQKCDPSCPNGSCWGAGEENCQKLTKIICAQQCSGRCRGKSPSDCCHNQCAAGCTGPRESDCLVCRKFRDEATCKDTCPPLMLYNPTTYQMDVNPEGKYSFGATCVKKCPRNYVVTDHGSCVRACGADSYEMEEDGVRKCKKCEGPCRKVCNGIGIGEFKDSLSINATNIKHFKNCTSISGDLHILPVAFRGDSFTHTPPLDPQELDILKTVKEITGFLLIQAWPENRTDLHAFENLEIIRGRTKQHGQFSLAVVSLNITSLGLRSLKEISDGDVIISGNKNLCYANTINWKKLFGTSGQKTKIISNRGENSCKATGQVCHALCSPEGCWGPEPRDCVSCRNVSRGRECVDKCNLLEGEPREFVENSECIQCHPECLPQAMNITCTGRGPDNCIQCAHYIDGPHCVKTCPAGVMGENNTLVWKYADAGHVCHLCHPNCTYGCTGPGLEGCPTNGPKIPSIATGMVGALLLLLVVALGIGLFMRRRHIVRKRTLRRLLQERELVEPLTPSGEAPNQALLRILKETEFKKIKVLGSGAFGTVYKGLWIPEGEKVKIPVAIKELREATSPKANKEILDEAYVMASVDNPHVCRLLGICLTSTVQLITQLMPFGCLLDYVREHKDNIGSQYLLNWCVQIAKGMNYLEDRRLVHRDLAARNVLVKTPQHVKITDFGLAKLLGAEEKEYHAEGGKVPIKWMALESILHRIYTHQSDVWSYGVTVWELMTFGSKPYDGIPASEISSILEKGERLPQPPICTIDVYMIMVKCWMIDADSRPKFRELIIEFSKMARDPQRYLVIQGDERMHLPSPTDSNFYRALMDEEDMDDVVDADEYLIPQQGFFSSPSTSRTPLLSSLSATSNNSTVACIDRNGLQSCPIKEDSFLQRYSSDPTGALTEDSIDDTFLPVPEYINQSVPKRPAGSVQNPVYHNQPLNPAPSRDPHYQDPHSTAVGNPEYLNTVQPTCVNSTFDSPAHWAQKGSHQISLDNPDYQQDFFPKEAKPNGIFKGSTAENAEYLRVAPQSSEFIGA", "test": "EGFR target modulation in HaCaT (EGFR-WT) cell line (phospho-EGFR Y1173 ELISA)", "details": "value in parentheses", "method_in_brief": "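Read-out was chemiluminescent ELISA: lysates were captured overnight at 4 °C by anti-EGFR antibody and probed with an HRP secondary. Before lysis, wild-type-EGFR HaCaT cells received compound for 3 h plus EGF stimulation. EGF-only cells defined maximal signal, and IC50 values were obtained by non-linear curve fitting.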"}, "H1975 (EGFR L858/T790M)": {"molecular_target": "H1975 (EGFR L858/T790M) (Homo sapiens, UniProt P00533, L858R/T790M)", "test": "EGFR target modulation in H1975 cell line (phospho-EGFR Y1173 ELISA)", "method_in_brief": "as §1"}, "[2]": {"molecular_target": "human EGFR WT (NIH/3T3 cells, EGF-induced) (Homo sapiens, UniProt P00533)", "sequence (P00533 25-1210)": "as above", "test": "EGFR target modulation in engineered NIH/3T3 cell lines (phospho-EGFR Y1068 AlphaLISA), EGFR WT", "details": "engineered NIH/3T3 cells, read-out: NIH3T3 IC50 (μM) EGFR (WT)", "method_in_brief": "as §2"}}, "data": [{"smiles": "C=CC(=O)N1CCCC[C@@H](n2c(NC(=O)c3ccnc(C)c3)nc3cc(CN4CC[C@H](F)C4)cc(C)c32)C1", "note": "[Example 17-147]", "values": [{"measurement": "IC50", "setting": "H3255 (EGFR L858R)", "value": 2, "unit": "nM"}, {"measurement": "IC50", "setting": "[1]", "value": "< 0.001", "unit": "µM"}, {"measurement": "IC50", "setting": "HaCaT (EGFR WT)", "value": 44, "unit": "nM"}, {"measurement": "IC50", "setting": "H1975 (EGFR L858/T790M)", "value": "< 1", "unit": "nM"}, {"measurement": "IC50", "setting": "[2]", "value": 0.025, "unit": "µM"}]}, {"smiles": "C=CC(=O)N1CCCC[C@@H](n2c(NC(=O)c3ccnc(C)c3)nc3cc(CN4CC[C@@H](F)C4)cc(C)c32)C1", "note": "[Example 17-148]", "values": [{"measurement": "IC50", "setting": "H3255 (EGFR L858R)", "value": 2, "unit": "nM"}, {"measurement": "IC50", "setting": "[1]", "value": 0.001, "unit": "µM"}, {"measurement": "IC50", "setting": "HaCaT (EGFR WT)", "value": 52, "unit": "nM"}, {"measurement": "IC50", "setting": "H1975 (EGFR L858/T790M)", "value": 1, "unit": "nM"}, {"measurement": "IC50", "setting": "[2]", "value": 0.083, "unit": "µM"}]}, {"smiles": "C=CC(=O)N1CCCC[C@@H](n2c(NC(=O)c3ccnc(C)c3)nc3cc(CN4CC[C@H](OC)C4)cc(C)c32)C1", "note": "[Example 17-149]", "values": [{"measurement": "IC50", "setting": "H3255 (EGFR L858R)", "value": 2, "unit": "nM"}, {"measurement": "IC50", "setting": "[1]", "value": "< 0.001", "unit": "µM"}, {"measurement": "IC50", "setting": "HaCaT (EGFR WT)", "value": 48, "unit": "nM"}, {"measurement": "IC50", "setting": "H1975 (EGFR L858/T790M)", "value": "< 1", "unit": "nM"}, {"measurement": "IC50", "setting": "[2]", "value": 0.015, "unit": "µM"}]}, {"smiles": "C=CC(=O)N1CCCC[C@@H](n2c(NC(=O)c3ccnc(C)c3)nc3cc(CN4CC[C@@H](OC)C4)cc(C)c32)C1", "note": "[Example 17-150]", "values": [{"measurement": "IC50", "setting": "H3255 (EGFR L858R)", "value": 3, "unit": "nM"}, {"measurement": "IC50", "setting": "[1]", "value": 0.001, "unit": "µM"}, {"measurement": "IC50", "setting": "HaCaT (EGFR WT)", "value": 59, "unit": "nM"}, {"measurement": "IC50", "setting": "H1975 (EGFR L858/T790M)", "value": 2, "unit": "nM"}, {"measurement": "IC50", "setting": "[2]", "value": 0.042, "unit": "µM"}]}, {"smiles": "C=CC(=O)N1CCCC[C@@H](n2c(NC(=O)c3ccnc(C)c3)nc3cc(CN4CC(F)C4)cc(C)c32)C1", "note": "[Example 17-152]", "values": [{"measurement": "IC50", "setting": "H3255 (EGFR L858R)", "value": 2, "unit": "nM"}, {"measurement": "IC50", "setting": "[1]", "value": "< 0.001", "unit": "µM"}, {"measurement": "IC50", "setting": "HaCaT (EGFR WT)", "value": 46, "unit": "nM"}, {"measurement": "IC50", "setting": "H1975 (EGFR L858/T790M)", "value": 1, "unit": "nM"}, {"measurement": "IC50", "setting": "[2]", "value": 0.032, "unit": "µM"}]}, {"smiles": "C=CC(=O)N1CCCC[C@@H](n2c(NC(=O)c3ccnc(C)c3)nc3cc(CN4CC(OC)C4)cc(C)c32)C1", "note": "[Example 17-154]", "values": [{"measurement": "IC50", "setting": "H3255 (EGFR L858R)", "value": 2, "unit": "nM"}, {"measurement": "IC50", "setting": "[1]", "value": "< 0.001", "unit": "µM"}, {"measurement": "IC50", "setting": "HaCaT (EGFR WT)", "value": 38, "unit": "nM"}, {"measurement": "IC50", "setting": "H1975 (EGFR L858/T790M)", "value": "< 1", "unit": "nM"}, {"measurement": "IC50", "setting": "[2]", "value": 0.01, "unit": "µM"}]}]}
